Measured values published in patent publication US8404866B2, “Substituted heterocyclic mercaptosulfonamide metalloprotease inhibitors” (Florida State University Research Foundation, priority 2008, dated 2013).
Counter-ions that a name gives are not always drawn.

Columns and labels:
Type in all cases: biochemical
[1] = target: T1, MMP-1 (HFC; human fibroblast collagenase) (Homo sapiens, UniProt P03956); assay: Enzyme kinetic assay, inhibition of MMP-1; conditions: for Ki: read-out: Ki (value in parentheses), HFC MMP-1; for IC50: 25° C., pH 7.5, substrate 1 μM, read-out: IC50 (value without parentheses), HFC MMP-1
T1 sequence (P03956 100-469): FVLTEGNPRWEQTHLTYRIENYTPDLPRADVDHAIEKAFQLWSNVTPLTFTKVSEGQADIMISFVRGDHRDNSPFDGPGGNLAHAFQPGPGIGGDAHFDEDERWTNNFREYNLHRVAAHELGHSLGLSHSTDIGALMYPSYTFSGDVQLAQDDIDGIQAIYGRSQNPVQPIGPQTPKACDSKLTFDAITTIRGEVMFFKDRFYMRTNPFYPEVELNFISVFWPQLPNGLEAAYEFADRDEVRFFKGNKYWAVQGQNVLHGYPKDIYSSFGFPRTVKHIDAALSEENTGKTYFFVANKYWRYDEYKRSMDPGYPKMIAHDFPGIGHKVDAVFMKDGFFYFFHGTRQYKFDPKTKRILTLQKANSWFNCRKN
Text: (§1) The following protocol was used to obtain the data found in the following table. Materials: The fluorescent peptide substrates for matrix metalloproteinases (MMPs) used were purchased from Bachem Chem. Co. The metal salts and Brij-35 were purchased from Fisher Scientific Inc. All other chemicals were purchased from Sigma-Aldrich Chem. Co. The sources and biochemical characterizations of multiple MMPs, including MMP-1/human fibroblast collagenase (HFC), MMP-2/human fibroblast gelatinase (HFG), MMP-8/human neutrophil collagenase (HNC), and MMP-9/human neutrophil gelatinase (HNG), MMP-7/human matrilysin (MLN), MMP-3/human fibroblast stromelysin-1 (HFS), human recombinant catalytic domain of membrane-type 1 matrix metalloproteinase (cdMT1-MMP), catalytic domain of MMP-12/metalloelastase (cdMET), and MMP-26/human endometase (EDM) were described previously (Sang, Q. X., Birkedal-Hansen, H., and Van Wart, H. E. Proteolytic and non-proteolytic activation of human neutrophil progelatinase B. Biochim. Biophys. Acta. 1995; 1251, 99-108; Sang, Q. A., Bodden, M. K., and Windsor, L. J. Activation of human progelatinase A by collagenase and matrilysin: activation of procollagenase by matrilysin. J. Protein. Chem. 1996; 15, 243-253; Li, H., Bauzon, D. E., Xu, X., Tschesche, H., Cao, J., and Sang, Q.-X. A. Immunological characterization of cell-surface and soluble forms of membrane type 1 matrix metalloproteinase in human breast cancer cells and in fibroblasts. Molec. Carcinog. 1998; 22, 84-94; Park, H. I., Ni, J., Gerkema, F. E., Liu, D., Belozerov, V. E., and Sang, Q.-X. A. Identification and characterization of human endometase (Matrix metalloproteinase-26) from endometrial tumor. J. Biol. Chem., 2000; 275, 20540-20544). The active concentrations of MMPs were determined by titration with GM6001, a tight-binding MMP inhibitor, as described previously (Park, H. I., Turk, B. E., Gerkema, F. E., Cantley, L. C., and Sang, Q.-X. A. Peptide substrate specificities and protein cleavage sites of human endometase/matrilysin-2/matrix metalloproteinase-26. J. Biol. Chem. 2002; 277, 35168-35175).
(§2) The active inhibitor concentrations were estimated by titrating the mercapto group with 5,5′-dithiobis(2-nitrobenzoic acid) (DTNB; Ellman's reagent) as described previously (Ellman, G. L. A colorimetric method for determining low concentrations of mercaptans. Arch. Biochem. Biophys. 1958; 74, 443-450; Ellman, G. L. Tissue sulfhydryl groups. Arch. Biochem. Biophys. 1959; 82, 70-77; Riddles, P. W., Blakeley, R. L., and Zerner, B. Ellman's reagent: 5,5′-dithiobis(2-nitrobenzoic acid)—a reexamination. Anal. Biochem. 1979; 94, 75-81). Briefly, the reaction of DTNB with the mercapto group produces 2-nitro-5-thiobenzoic acid (TNB). The concentration of TNB is then measured by monitoring the absorbance at 412 nm. Cysteine was used to generate the standard curve with a molar extinction coefficient of 14,000±500 M^−1 cm^−1, which is close to the value in the literature (Riddles, P. W., Blakeley, R. L., and Zerner, B. Ellman's reagent: 5,5′-dithiobis(2-nitrobenzoic acid)—a reexamination. Anal. Biochem. 1979; 94, 75-81).
(§3) The substrate Mca-PLGLDpaAR-NH2 was used to measure inhibition constants (Knight, C. G., Willenbrock. F., and Murphy, G. A novel coumarin-labelled peptide for sensitive continuous assays of the matrix metalloproteinases. FEBS Lett. 1992; 296, 263-266). Enzymatic assays were performed at 25° C. in 50 mM HEPES buffer at pH 7.5 in the presence of 10 mM CaCl2, 0.2 M NaCl, and 0.01% or 0.05% Brij-35 with substrate concentrations of 1 μM. The release of product was monitored by measuring fluorescence (excitation and emission wavelengths of 328 nm and 393 nm, respectively) with a Perkin Elmer Luminescence Spectrophotometer LS 50B connected to a temperature controlled water bath. All stock solutions of inhibitors were in dimethyl sulfoxide. […]

[2] = target: T2, MMP-26 (EDM; human endometase) (Homo sapiens, UniProt Q9NRE1); assay: Enzyme kinetic assay, inhibition of MMP-26; conditions: read-out: Ki (value in parentheses), EDM MMP-26
T2 sequence (Q9NRE1 90-261): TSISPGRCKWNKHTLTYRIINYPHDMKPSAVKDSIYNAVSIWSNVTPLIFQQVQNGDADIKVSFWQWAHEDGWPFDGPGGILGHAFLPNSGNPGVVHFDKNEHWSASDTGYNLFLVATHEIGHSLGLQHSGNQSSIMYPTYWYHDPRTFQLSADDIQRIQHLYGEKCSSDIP
Text: as §1, §2, §3

[3] = target: T3, MMP-7 (MLN; human matrilysin) (Homo sapiens, UniProt P09237); assay: Enzyme kinetic assay, inhibition of MMP-7; conditions: for IC50: 25° C., pH 7.5, substrate 1 μM, read-out: IC50 (value without parentheses), MLN MMP-7; for Ki: read-out: Ki (value in parentheses), MLN MMP-7
T3 sequence (P09237 95-267): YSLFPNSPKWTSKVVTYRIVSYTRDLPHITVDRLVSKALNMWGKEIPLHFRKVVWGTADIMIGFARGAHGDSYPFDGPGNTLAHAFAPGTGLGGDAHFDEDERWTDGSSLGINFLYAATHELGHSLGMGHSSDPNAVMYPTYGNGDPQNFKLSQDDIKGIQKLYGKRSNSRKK
Text: as §1, §2, §3

[4] = target: T4, MMP-12 (cdMET; catalytic domain of MMP-12/metalloelastase) (Homo sapiens, UniProt P39900); assay: Enzyme kinetic assay, inhibition of MMP-12; conditions: read-out: Ki (value in parentheses), cdMET MMP-12
T4 construct: catalytic domain of MMP-12/metalloelastase (cdMET)
Text: as §1, §2, §3

T4 sequence (P39900 106-263 limits assumed, species assumed): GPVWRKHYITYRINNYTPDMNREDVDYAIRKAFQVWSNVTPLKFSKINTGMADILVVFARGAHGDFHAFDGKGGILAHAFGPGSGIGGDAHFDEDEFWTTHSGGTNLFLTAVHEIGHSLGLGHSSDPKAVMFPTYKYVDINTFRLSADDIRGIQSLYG

SMILES | Ki [1] [µM] | Ki [2] [µM] | IC50 [3] [µM] | Ki [4] [µM] | IC50 [1] [µM] | Ki [3] [µM]
O=S(=O)(N[C@H]1CNC[C@@H]1S)c1ccc(Oc2ccccc2)cc1 (racemic) [Example 3, (±)-trans-3-(4-Phenoxybenzenesulfonamido)-4-mercaptopyrrolidine Hydrochloride] |  | 0.028 | > 25 | 0.038 | ~25 | 
CN([C@H]1CN(C(N)=O)C[C@@H]1S)S(=O)(=O)c1ccc(Oc2ccccc2)cc1 (racemic) [Example 4, (±)-N-Carbamoyl-trans-3-(N-methyl-4-phenoxybenzenesulfonamido)-4-mercaptopyrrolidine] | 0.85 | 0.019 | > 25 | 0.16 |  | 
NCCCCCC(=O)N1C[C@H](NS(=O)(=O)c2ccc(Oc3ccccc3)cc2)[C@@H](S)C1 (racemic) [Example 7, (±)-N-(6-Aminohexanoyl)-trans-3-(4-phenoxybenzene-sulfonamido)-4-mercaptopyrrolidine Hydrochloride] |  | 0.004 |  | 0.0048 | > 3 | 4
CC(=O)NCCCCCC(=O)N1C[C@H](NS(=O)(=O)c2ccc(Oc3ccccc3)cc2)[C@@H](S)C1 (racemic) [Example 8, (±)-N-(6-Acetamidohexanoyl)-trans-3-(4-phenoxy-benzenesulfonamido)-4-mercaptopyrrolidine] |  | 0.003 |  | 0.002 | > 6 | 3
CC(=O)NCCCCCC(=O)N1C[C@H](NS(=O)(=O)c2ccc(-c3ccccc3)cc2)[C@@H](S)C1 (racemic) [Example 9, (±)-N-(6-Acetamidohexanoyl)-trans-3-(4-phenylbenzene-sulfonamido)-4-mercaptopyrrolidine] |  | 0.27 |  | 0.029 | > 6 | 2

Other lines, results leading:

Ki [1] [µM] | Ki [2] [µM] | IC50 [3] [µM] | Ki [4] [µM] | IC50 [1] [µM] | Ki [3] [µM] | SMILES
4.1 | 0.032 | > 25 | 0.25 |  |  | NC(=O)N1C[C@H](NS(=O)(=O)c2ccc(Oc3ccccc3)cc2)[C@@H](S)C1 (racemic) [Example 1, (±)-N-Carbamoyl-trans-3-(4-phenoxybenzenesulfonamido)-4-mercaptopyrrolidine]
2.8 | 0.041 | > 12.5 | 0.002 |  |  | O=C(NCCN1C(=O)c2ccccc2C1=O)N1C[C@H](NS(=O)(=O)c2ccc(Oc3ccccc3)cc2)[C@@H](S)C1 (racemic) [Example 2, (±)-N-(2-Phthalimidoethylaminocarbonyl)-trans-3-(4-phenoxybenzenesulfonamido)-4-mercaptopyrrolidine]
 | 0.072 | > 50 | 0.72 | > 12.5 |  | O=C(OCc1ccccc1)N1C[C@H](NS(=O)(=O)c2ccc(Oc3ccccc3)cc2)[C@@H](S)C1 (racemic) [Example 5, (±)-N-(Benzyloxycarbonyl)-trans-3-(4-phenoxybenzenesulfonamido)-4-mercaptopyrrolidine]
 | 0.65 | > 12.5 | 0.71 | > 130 |  | O=C(OCc1ccccc1)N1C[C@H](NS(=O)(=O)c2ccc(-c3ccccc3)cc2)[C@@H](S)C1 (racemic) [Example 6, (±)-N-(Benzyloxycarbonyl)-trans-3-(4-phenylbenzenesulfonamido)-4-mercaptopyrrolidine]
